Data published in patent US10189809B2, “SGC stimulators” (Ironwood Pharmaceuticals, Inc., priority 2010, dated 2019).

Key:
[1] = molecular target: T1, soluble guanylate cyclase (sGC) (Homo sapiens (Human), UniProt Q02108+Q02153); experiment: sGC-HEK-cGMP assay run in the absence of SNP (HEK WC assay); assay type: cell-based; conditions: no SNP, increase in the sGC receptor activity; for HEK WC Assay (fold increase at 10 μM): compound at 10 μM; for HEK WC Assay (fold increase at 30 μM): compound at 30 μM
Procedure, shortened: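 Intracellular cGMP was measured by LC/MS, using a standard curve, in HEK293 cells treated with compound for 10 min at 37° C after a 15 min 0.5 mM IBMX pretreatment, with no SNP present. Lysis and quench used 0.1 M HCl. EC50 values came from concentration-response fits.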

[2] = molecular target: T2, Human soluble guanylate cyclase enzyme (hsGC) (Homo sapiens (Human), UniProt Q02108+Q02153); experiment: Purified human sGC enzyme activity assay; assay type: biochemical; conditions: for sGC Enzyme (specific activity at 10 μM) / sGC Enzyme (fold increase at 10 μM without SNP): 10 μM compound; for sGC Enzyme (specific activity at 30 μM) / sGC Enzyme (fold increase at 30 μM without SNP): 30 μM compound
Procedure, shortened: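 Values are fold-change of sGC specific activity, nmoles cGMP per mg enzyme per min, relative to DMSO controls. Reactions: 5 ng human enzyme, 300 μM GTP, 1 mM IBMX, 2 mM MgCl2/DTT, 0.1 M Tris pH 8.0, compound 10 or 30 μM final, 37° C for 30 minutes, methanol quench. cGMP read against a 0.078-10 μM final standard curve.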

[3] = molecular target: T1, soluble guanylate cyclase (sGC); experiment: sGC-HEK-cGMP assay run with SNP incubation (HEK WC assay); assay type: cell-based; conditions: for Emax at 10 µM: read-out: HEK WC Assay (% Emax at 10 uM/with 10 uM SNP); for Emax at 30 µM: read-out: HEK WC Assay (% Emax at 30 uM/with 10 uM SNP)
Procedure, shortened: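 EC50 values derive from concentration-response curves of intracellular cGMP in HEK293 cells, which express sGC endogenously. Compound and sodium nitroprusside were co-incubated 10 min at 37 °C after a 15-min 0.5 mM IBMX step, with 0.1 M HCl lysis and 1% DMSO vehicle.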

Thoracic aortic rings = Thoracic aortic rings assay (Example 19a; IBMX as 100% inhibition); conditions: compound at 10 μM; rat thoracic aortic rings contracted with 100 ng/mL phenylephrine; read-out: Percent Relaxation at 10 μM
Protocol: Thoracic aortic rings were dissected from anesthetized (isoflurane) male Sprague-Dawley rats weighing 275-299 g. Tissues were immediately transferred to ice-cold Krebs-Henseleit solution, which had been aerated with 95% O2 and 5% CO2 for 30 minutes. Following removal of connective tissue, aortic sections were cut into 4 rings (˜2 mm each) and suspended on 2 L-shaped hooks, with one hook fixed at the bottom of the tissue bath (Schuler Organ Bath, Harvard Apparatus) and the other connected to a force transducer (F30 Force Transducer, Harvard Apparatus). Baths contained Krebs Henseleit solution (10 mL) heated to 37° C. and aerated with 95% O2 and 5% CO2. Rings were brought to an initial tension of 0.3-0.5 g and gradually raised to a resting tension of 1.0 g over 60 minutes. Rings were rinsed with Krebs Henseleit solution (heated to 37° C. and aerated with 95% O2 and 5% CO2) at 15 minute intervals until a stable baseline was obtained. Rings were considered to be stable after a resting tension of 1.0 g was maintained (for approximately 10 minutes) without need for adjustment. Rings were then contracted with 100 ng/mL phenylephrine by adding 100 uL of a 10 μg/mL phenylephrine stock solution. Tissues achieving a stable contraction were then treated in a cumulative, dose dependent manner with test compounds prepared in dimethylsulfoxide (DMSO). In some cases, tissues were rinsed three times over a 5 minute period with Krebs-Heinseleit's solution (heated to 37° C. and aerated with 95% O2 and 5% CO2), allowed to stabilize at baseline, and then used for characterization of other test articles or DMSO effects. All data were collected using the HSE-ACAD software provided by Harvard Apparatus. […] EC50 values were calculated from concentration-response curves generated with GraphPad Prism Software.

[4] = molecular target: T2, Human soluble guanylate cyclase enzyme (hsGC); experiment: Purified human sGC enzyme synergy assay in the presence of 1 μM sodium nitroprusside (SNP); assay type: biochemical; conditions: with 1 μM SNP; for sGC Enzyme (fold increase at 30 μM with SNP): 30 μM compound; for sGC Enzyme (fold increase at 10 μM with SNP): 10 μM compound
Procedure, shortened: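 Fold-change in cGMP-forming specific activity (nmol/mg/min) versus DMSO, with 1 μM SNP present throughout. Reactions held 30 min at 37 °C with 10 or 30 μM compound, 5 ng human sGC, 300 μM GTP, 1 mM IBMX and 2 mM MgCl2 at pH 8.0, then stopped with cold methanol.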

T1 sequence (Q02153 whole entry): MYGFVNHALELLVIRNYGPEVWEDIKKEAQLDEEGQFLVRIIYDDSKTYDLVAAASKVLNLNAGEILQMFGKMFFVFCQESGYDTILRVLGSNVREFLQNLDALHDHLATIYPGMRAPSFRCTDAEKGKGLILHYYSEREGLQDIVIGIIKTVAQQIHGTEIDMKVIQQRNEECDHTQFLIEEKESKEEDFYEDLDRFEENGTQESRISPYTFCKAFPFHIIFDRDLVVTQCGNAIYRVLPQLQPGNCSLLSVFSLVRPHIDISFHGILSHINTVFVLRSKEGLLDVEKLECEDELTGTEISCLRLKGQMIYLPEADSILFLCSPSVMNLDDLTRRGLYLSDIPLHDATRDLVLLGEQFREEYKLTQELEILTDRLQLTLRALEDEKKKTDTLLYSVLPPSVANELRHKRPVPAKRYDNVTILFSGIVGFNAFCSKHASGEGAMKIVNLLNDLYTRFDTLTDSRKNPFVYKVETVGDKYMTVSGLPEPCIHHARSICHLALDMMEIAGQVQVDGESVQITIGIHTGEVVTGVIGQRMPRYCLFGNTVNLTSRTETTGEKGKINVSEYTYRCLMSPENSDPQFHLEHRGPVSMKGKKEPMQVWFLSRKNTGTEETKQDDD
T1 sequence (Q02108 whole entry): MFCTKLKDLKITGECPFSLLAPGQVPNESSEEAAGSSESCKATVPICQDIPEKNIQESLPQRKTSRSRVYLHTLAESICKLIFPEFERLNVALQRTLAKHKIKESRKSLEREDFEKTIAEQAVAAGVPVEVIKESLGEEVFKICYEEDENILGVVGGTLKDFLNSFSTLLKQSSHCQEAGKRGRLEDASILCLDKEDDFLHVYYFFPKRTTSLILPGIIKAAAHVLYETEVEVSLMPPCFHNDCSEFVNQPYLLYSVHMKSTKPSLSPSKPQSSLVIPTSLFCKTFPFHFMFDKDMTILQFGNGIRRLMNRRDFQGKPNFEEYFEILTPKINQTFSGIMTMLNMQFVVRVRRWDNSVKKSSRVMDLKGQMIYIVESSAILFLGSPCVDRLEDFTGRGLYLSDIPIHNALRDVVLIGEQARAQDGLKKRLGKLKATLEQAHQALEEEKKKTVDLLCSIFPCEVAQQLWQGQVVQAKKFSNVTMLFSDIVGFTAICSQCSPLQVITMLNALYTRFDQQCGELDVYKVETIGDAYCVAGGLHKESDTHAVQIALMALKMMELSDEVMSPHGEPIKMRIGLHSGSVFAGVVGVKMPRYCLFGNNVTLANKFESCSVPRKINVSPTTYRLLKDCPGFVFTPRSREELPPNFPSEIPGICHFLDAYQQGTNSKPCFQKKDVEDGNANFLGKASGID
T2 sequence (Q02153 whole entry): as the sequence (Q02153 whole entry) above
T2 sequence (Q02108 whole entry): as the sequence (Q02108 whole entry) above

| Compound | HEK WC Assay (fold increase at 10 μM) [1] | HEK WC Assay (fold increase at 30 μM) [1] | sGC Enzyme (specific activity at 10 μM) [2] | sGC Enzyme (fold increase at 10 μM without SNP) [2] | sGC Enzyme (specific activity at 30 μM) [2] | sGC Enzyme (fold increase at 30 μM without SNP) [2] | Emax at 10 µM [3] | Emax at 30 µM [3] | inhibition at 10 µM (Thoracic aortic rings) | sGC Enzyme (fold increase at 30 μM with SNP) [4] | sGC Enzyme (fold increase at 10 μM with SNP) [4] |
| --- | --- | --- | --- | --- | --- | --- | --- | --- | --- | --- | --- |
| Fc1ccccc1Cn1nc(-c2ncccn2)cc1-c1nccs1 [Compound I-33] | B (B = 1 to <2 fold increase) | C (C = 2 to <5 fold increase) | C (C = 100 to <200) | A (A = no increase to <2 fold increase) | D (D = 200 to <500) | C (C = 5 to <10 fold increase) | 20 to 40% | 40 to 60% | 110% | D (D = equal or >10 fold increase) |  |
| N#Cc1cc(-c2ccccn2)nn1Cc1ccccc1F [Compound I-3] | A (A = no increase to <1 fold increase) | D (D = 5 to <10 fold increase) | D (D = 200 to <500) | B (B = 2 to <5 fold increase) |  | C (C = 5 to <10 fold increase) | 20 to 40% | 40 to 60% | 92% | C (C = 5 to <10 fold increase) | C (C = 5 to <10 fold increase) |
| COc1cccc(-c2cc(-c3ncccn3)nn2Cc2ccccc2F)n1 [Compound I-6] | B (B = 1 to <2 fold increase) | C (C = 2 to <5 fold increase) | D (D = 200 to <500) | B (B = 2 to <5 fold increase) | D (D = 200 to <500) | B (B = 2 to <5 fold increase) | 20 to 40% | 20 to 40% | 102% | D (D = equal or >10 fold increase) | B (B = 2 to <5 fold increase) |
| Fc1ccccc1Cn1nc(-c2ncccn2)cc1-c1ccsc1 [Compound I-4] | A (A = no increase to <1 fold increase) | D (D = 5 to <10 fold increase) | E (E = 500 to <1000) | B (B = 2 to <5 fold increase) | E (E = 500 to <1000) | C (C = 5 to <10 fold increase) | 10 to 20% | 20 to 40% | 102% | C (C = 5 to <10 fold increase) | B (B = 2 to <5 fold increase) |
| Fc1ccccc1Cn1nc(-c2ccccn2)cc1-c1ccccc1 [Compound I-5] | A (A = no increase to <1 fold increase) | A (A = no increase to <1 fold increase) | D (D = 200 to <500) | B (B = 2 to <5 fold increase) | D (D = 200 to <500) | B (B = 2 to <5 fold increase) | 0 to 10% | 10 to 20% | 55.6% | B (B = 2 to <5 fold increase) | B (B = 2 to <5 fold increase) |
